Results published in patent US20040073277A1, “High fluence rate activation of photosensitizers for dermatological applications” (priority 2002, published 2004).
Where two headings read alike, the source gives them in different places.

Assays:
actinic keratoses [1] = details: cited from earlier work
hair follicles = details: photodynamic injury to hair follicles; cited from earlier work
acne [2] = details: 20% ALA for 3 hours on the back; broadband lamp 550 to 700 nm, 150 J/cm^2; cited from earlier work
acne [3] = details: red light from a halogen lamp, 13 J/cm^2; cited from earlier work
actinic keratoses [4] = details: irradiation 4 hours after ALA, 580 to 740 nm lamp, 20 J/cm^2; cited from earlier work
actinic keratoses [5] = test: ALA-PDT of lesional skin with pulsed dye laser below the purpura threshold; format: in vivo, human
Procedure: The present invention is generally directed to a method for activation of photodynamic sensitizers in dermatologic application.
The pulsed dye laser was operated below the purpura threshold of the skin at a fluence of about 3.0 to about 7.5 J/cm^2. […] Treatment was performed and successful with and without surface cooling. Surface cooling provided epidermal protection and additional pain reduction.

[6] = test system: photoaged or wrinkled skin; details: following ALA-PDT; cited from earlier work
[7] = 20% ALA for 6 hours, 585 nm, 1.5 milliseconds, 18 J/cm^2
[8] = actinic keratoses, pulsed dye laser 595 nm below purpura threshold

For `NCC(=O)CCC(=O)O` [ALA, 5-Aminolevulinic acid], the “efficacy of pulsed dye laser versus conventional lamp” value (actinic keratoses [1]; [7]) is given as “similar”, the “pain with pulsed dye laser versus conventional lamp” value (actinic keratoses [1]; [7]) is given as “significantly lower” and the “duration of purpura after treatment” value (actinic keratoses [1]; pulsed dye laser only, 585 nm, 1.5 milliseconds, 18 J/cm^2) is given as “up to two weeks”. For the same molecule, the “duration of erythema and crusting after treatment” value (actinic keratoses [1]; similar for pulsed dye laser and conventional lamp) was “up to two weeks”, the “excessive or unwanted hair” value (hair follicles) was “reduced” and the acne response (acne [2]) was “improved”. For the same molecule, the side effects (acne [2]) was “erythema, edema, exfoliation, and long-lasting hyperpigmentation”, the side effects (acne [3]) was “edematous erythema, epidermal exfoliation and irritation lasting several days, and pigmentation changes” and the therapeutic response (acne [3]) was “excellent therapeutic response”. The “time for treated skin to return to normal” value (acne [3]) was “one month”, the side effects (actinic keratoses [4]) was “erythema and skin erosions occurred” and the “treatment outcome of the lesion” value (actinic keratoses [5]; ALA applied to lesional skin, pulsed dye laser 595 nm, pulse duration 3 to 40 milliseconds, fluence about 3.0 to about 7.5 J/cm^2) was “successfully treated”. For the same molecule, the “pain, crusting and erosions of treated lesions” value (actinic keratoses [5]; [8]) was “reduction in pain and in crusting and erosions”, the purpura (actinic keratoses [5]; [8]) was “without purpura” and the “efficacy compared with conventional ALA-PDT” value (actinic keratoses [5]; pulsed light source) was “efficacy equivalent to conventional ALA-PDT”. The “side effects compared with conventional ALA-PDT” value (actinic keratoses [5]; pulsed light source) was “fewer and minimal side effects” and the “photoaged or wrinkled skin” value [6] was “improve”.
